Measured values: patent US20240246964A1 (Arbutus Biopharma Corporation, priority 2021, published 2024)

Biological target: human PD-L1 (Homo sapiens (Human), UniProt Q9NZQ7)
Assay: T cell activation luciferase reporter cell culture system (T Cell Activation Assay)
Format: cell-based
Conditions: luciferase reporter assay; PD-L1 aAPC/CHO-K1 cells with PD-1 effector Jurkat T cells

human PD-L1, sequence (Q9NZQ7 19-290): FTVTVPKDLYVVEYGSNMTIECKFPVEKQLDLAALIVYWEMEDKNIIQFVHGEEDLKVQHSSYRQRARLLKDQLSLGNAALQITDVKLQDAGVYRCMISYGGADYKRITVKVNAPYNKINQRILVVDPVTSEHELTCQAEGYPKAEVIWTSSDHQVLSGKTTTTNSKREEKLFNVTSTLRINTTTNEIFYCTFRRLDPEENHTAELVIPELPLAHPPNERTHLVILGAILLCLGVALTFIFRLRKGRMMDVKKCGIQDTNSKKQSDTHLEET

| EC50 | Compound |
| --- | --- |
| 42.9 nM | COc1nc(-c2cccc(-c3ccnc(-c4ccc5c(c4)N(C)CCNC5)c3Cl)c2Cl)ccc1CNC[C@@H]1CCC(=O)N1 [Cmpd 3, (S)-5-((((6-(2-chloro-3-(3-chloro-2-(1-methyl-2,3,4,5-tetrahydro-1H-benzo[e][1,4]diazepin-8-yl)pyridin-4-yl)phenyl)-2-methoxypyridin-3-yl)methyl)amino)methyl)pyrrolidin-2-one] |
| 172 nM | COc1nc(-c2cccc(-c3ccnc(-c4ccc5c(c4)N(C)CCNC5)c3Cl)c2Cl)ccc1CNCC(C)NC(C)=O (stereo not shown) [Cmpd 5, N-(1-(((6-(2-chloro-3-(3-chloro-2-(1-methyl-2,3,4,5-tetrahydro-1H-benzo[e][1,4]diazepin-8-yl)pyridin-4-yl)phenyl)-2-methoxypyridin-3-yl)methyl)amino)propan-2-yl)acetamide] |
| 22.3 nM | COc1cc(-c2nccc(-c3cccc(-c4ccc(CNC[C@@H]5CCC(=O)N5)c(OC)n4)c3Cl)c2Cl)cc2c1CN(C[C@@H]1CCC(=O)N1)CC2 [Cmpd 6, (S)-5-((((6-(2-chloro-3-(3-chloro-2-(8-methoxy-2-(((S)-5-oxopyrrolidin-2-yl)methyl)-1,2,3,4-tetrahydroisoquinolin-6-yl)pyridin-4-yl)phenyl)-2-methoxypyridin-3-yl)methyl)amino)methyl)pyrrolidin-2-one] |
| 53.5 nM | COc1cc(-c2nccc(-c3cccc(-c4ccc(CNC[C@@H]5CCC(=O)N5)c(OC)n4)c3Cl)c2Cl)cc2c1CNCC2 [Cmpd 7, (S)-5-((((6-(2-chloro-3-(3-chloro-2-(8-methoxy-1,2,3,4-tetrahydroisoquinolin-6-yl)pyridin-4-yl)phenyl)-2-methoxypyridin-3-yl)methyl)amino)methyl)pyrrolidin-2-one] |
| 84 nM | COc1nc(-c2cccc(-c3ccnc(-c4ccc5c(CNC[C@@H]6CCC(=O)N6)cn(C)c5c4)c3Cl)c2Cl)ccc1CNC[C@@H]1CCC(=O)N1 [Cmpd 11, (S)-5-((((6-(2-chloro-3-(3-chloro-2-(1-methyl-3-(((((S)-5-oxopyrrolidin-2-yl)methyl)amino)methyl)-1H-indol-6-yl)pyridin-4-yl)phenyl)-2-methoxypyridin-3-yl)methyl)amino)methyl)pyrrolidin-2-one] |
| 61.4 nM | COc1nc(-c2cccc(-c3ccnc(-c4ccc5c(c4)N(C)CCN(C[C@@H]4CCC(=O)N4)C5)c3Cl)c2Cl)ccc1CNC[C@@H]1CCC(=O)N1 [Cmpd 19, (S)-5-((((6-(2-chloro-3-(3-chloro-2-(1-methyl-4-(((S)-5-oxopyrrolidin-2-yl)methyl)-2,3,4,5-tetrahydro-1H-benzo[e][1,4]diazepin-8-yl)pyridin-4-yl)phenyl)-2-methoxypyridin-3-yl)methyl)amino)methyl)pyrrolidin-2-one] |
| 892 nM | COc1cc(-c2nccc(-c3cccc(-c4ccc(CNC[C@@H]5CCC(=O)N5)c(OC)n4)c3Cl)c2Cl)cc2c1CCN(CC(C)(C)O)C2 [Cmpd 45, (S)-5-((((6-(2-chloro-3-(3-chloro-2-(2-(2-hydroxy-2-methylpropyl)-5-methoxy-1,2,3,4-tetrahydroisoquinolin-7-yl)pyridin-4-yl)phenyl)-2-methoxypyridin-3-yl)methyl)amino)methyl)pyrrolidin-2-one] |
| 29.1 nM | COc1cc(-c2nccc(-c3cccc(-c4ccc(CNC[C@@H]5CCC(=O)N5)c(OC)n4)c3Cl)c2Cl)cc2c1CN(C[C@H](C)O)CC2 [Cmpd 50, (S)-5-((((6-(2-chloro-3-(3-chloro-2-(2-((S)-2-hydroxypropyl)-8-methoxy-1,2,3,4-tetrahydroisoquinolin-6-yl)pyridin-4-yl)phenyl)-2-methoxypyridin-3-yl)methyl)amino)methyl)pyrrolidin-2-one] |

More lines, now with the values behind:

| Compound | EC50 |
| --- | --- |
| COc1nc(-c2cccc(-c3ccnc(-c4ccc(CNC5CCN(C)C(=O)C5)c(OC(F)F)c4)c3Cl)c2Cl)ccc1CNC1CCN(C)C(=O)C1 (racemic) [Example 619, 4-(((6-(2-Chloro-3-(3-chloro-2-(3-(difluoromethoxy)-4-(((1-methyl-2-oxopiperidin-4-yl)amino)methyl)phenyl)pyridin-4-yl)phenyl)-2-methoxypyridin-3-yl)methyl)amino)-1-methylpiperidin-2-one] | 66.9 nM |
| COc1cc(-c2nccc(-c3cccc(-c4ccn5c(=O)c(CNC[C@@H]6CCC(=O)N6)cnc5c4)c3Cl)c2Cl)ccc1CNC[C@@H]1CCC(=O)N1 [Cmpd 1, 8-(2-chloro-3-(3-chloro-2-(3-methoxy-4-(((((S)-5-oxopyrrolidin-2-yl)methyl)amino)methyl)phenyl)pyridin-4-yl)phenyl)-3-(((((S)-5-oxopyrrolidin-2-yl)methyl)amino)methyl)-4H-pyrido[1,2-a]pyrimidin-4-one] | 300 nM |
| COc1nc(-c2cccc(-c3ccnc(-c4ccn5c(=O)c(CNC[C@@H]6CCC(=O)N6)cnc5c4)c3Cl)c2Cl)ccc1CNC[C@@H]1CCC(=O)N1 [Cmpd 2, 8-(3-chloro-4-(2-chloro-3-(6-methoxy-5-(((((S)-5-oxopyrrolidin-2-yl)methyl)amino)methyl)pyridin-2-yl)phenyl)pyridin-2-yl)-3-(((((S)-5-oxopyrrolidin-2-yl)methyl)amino)methyl)-4H-pyrido[1,2-a]pyrimidin-4-one] | 87.6 nM |
| COc1cc(-c2nccc(-c3cccc(-c4ccc(CNC[C@@H]5CCC(=O)N5)c(OC)n4)c3Cl)c2Cl)ccc1CNC[C@@H]1CCC(=O)N1 [Cmpd 8, (S)-5-((((6-(2-chloro-3-(3-chloro-2-(3-methoxy-4-(((((S)-5-oxopyrrolidin-2-yl)methyl)amino)methyl)phenyl)pyridin-4-yl)phenyl)-2-methoxypyridin-3-yl)methyl)amino)methyl)pyrrolidin-2-one] | 15 nM |
| COc1cc(-c2nccc(-c3cccc(-c4ccc(CNC[C@@H]5CCC(=O)N5)c(OC)n4)c3Cl)c2Cl)cc(F)c1CNC[C@@H]1CCC(=O)N1 [Cmpd 10, (S)-5-((((6-(2-chloro-3-(3-chloro-2-(3-fluoro-5-methoxy-4-(((((S)-5-oxopyrrolidin-2-yl)methyl)amino)methyl)phenyl)pyridin-4-yl)phenyl)-2-methoxypyridin-3-yl)methyl)amino)methyl)pyrrolidin-2-one] | 20.9 nM |
| COc1nc(-c2cccc(-c3ccnc(-c4cnc5c(CNC[C@@H]6CCC(=O)N6)cn(C)c5c4)c3Cl)c2Cl)ccc1CNC[C@@H]1CCC(=O)N1 [Cmpd 13, (S)-5-((((6-(2-chloro-3-(3-chloro-2-(1-methyl-3-(((((S)-5-oxopyrrolidin-2-yl)methyl)amino)methyl)-1H-pyrrolo[3,2-b]pyridin-6-yl)pyridin-4-yl)phenyl)-2-methoxypyridin-3-yl)methyl)amino)methyl)pyrrolidin-2-one] | 77.7 nM |
| COc1cc(-c2nccc(-c3cccc(-c4cnc(CNC[C@@H]5CCC(=O)N5)c(OC)n4)c3Cl)c2Cl)ccc1CNC[C@@H]1CCC(=O)N1 [Cmpd 20, (S)-5-((((5-(2-chloro-3-(3-chloro-2-(3-methoxy-4-(((((S)-5-oxopyrrolidin-2-yl)methyl)amino)methyl)phenyl)pyridin-4-yl)phenyl)-3-methoxypyrazin-2-yl)methyl)amino)methyl)pyrrolidin-2-one] | 22.3 nM |
| COc1cc(-c2nccc(-c3cccc(-c4ccc(CNC[C@@H]5CCC(=O)N5)c(OC)n4)c3Cl)c2Cl)cc2c1CN(C[C@@H](C)O)CC2 [Cmpd 27, (S)-5-((((6-(2-chloro-3-(3-chloro-2-(2-((R)-2-hydroxypropyl)-8-methoxy-1,2,3,4-tetrahydroisoquinolin-6-yl)pyridin-4-yl)phenyl)-2-methoxypyridin-3-yl)methyl)amino)methyl)pyrrolidin-2-one] | 25.1 nM |
| COc1cc(-c2nccc(-c3cccc(-c4cc(Cl)c(CNC[C@@H]5CCC(=O)N5)c(OC)n4)c3Cl)c2Cl)cc2c1CN(C[C@@H]1CCC(=O)N1)CC2 [Cmpd 37, (S)-5-((6-(3-chloro-4-(2-chloro-3-(4-chloro-6-methoxy-5-(((((S)-5-oxopyrrolidin-2-yl)methyl)amino)methyl)pyridin-2-yl)phenyl)pyridin-2-yl)-8-methoxy-3,4-dihydroisoquinolin-2(1H)-yl)methyl)pyrrolidin-2-one] | 25.6 nM |
| COc1cc(-c2nccc(-c3cccc(-c4ccc(CNC[C@@H]5CCC(=O)N5)c(OC)n4)c3Cl)c2Cl)cc2c1CCN(C[C@H](C)O)C2 [Cmpd 44, (S)-5-((((6-(2-chloro-3-(3-chloro-2-(2-((S)-2-hydroxypropyl)-5-methoxy-1,2,3,4-tetrahydroisoquinolin-7-yl)pyridin-4-yl)phenyl)-2-methoxypyridin-3-yl)methyl)amino)methyl)pyrrolidin-2-one] | 54.1 nM |
| COc1nc(-c2cccc(-c3ccnc(-c4cc(F)c5c(c4)CCN(CC(C)(C)O)C5)c3Cl)c2Cl)ccc1CNC[C@@H]1CCC(=O)N1 [Cmpd 46, (S)-5-((((6-(2-chloro-3-(3-chloro-2-(8-fluoro-2-(2-hydroxy-2-methylpropyl)-1,2,3,4-tetrahydroisoquinolin-6-yl)pyridin-4-yl)phenyl)-2-methoxypyridin-3-yl)methyl)amino)methyl)pyrrolidin-2-one] | 171 nM |
| COc1nc(-c2cccc(-c3ccnc(-c4cc(F)c5c(c4)CN(CC(C)(C)O)CC5)c3Cl)c2Cl)ccc1CNC[C@@H]1CCC(=O)N1 [Cmpd 47, (S)-5-((((6-(2-chloro-3-(3-chloro-2-(5-fluoro-2-(2-hydroxy-2-methylpropyl)-1,2,3,4-tetrahydroisoquinolin-7-yl)pyridin-4-yl)phenyl)-2-methoxypyridin-3-yl)methyl)amino)methyl)pyrrolidin-2-one] | 10000 nM |
| COc1cc(-c2nccc(-c3cccc(-c4ccc(CNC[C@@H]5CCC(=O)N5)c(OC)n4)c3Cl)c2Cl)cc2c1CN(CCC(C)(C)O)CC2 [Cmpd 49, (S)-5-((((6-(2-chloro-3-(3-chloro-2-(2-(3-hydroxy-3-methylbutyl)-8-methoxy-1,2,3,4-tetrahydroisoquinolin-6-yl)pyridin-4-yl)phenyl)-2-methoxypyridin-3-yl)methyl)amino)methyl)pyrrolidin-2-one] | 37 nM |
| COc1cc(-c2nccc(-c3cccc(-c4ccc(CNC[C@@H]5CCC(=O)N5)c(OC)n4)c3Cl)c2Cl)cc2c1CN(CCC1(O)CCC1)CC2 [Cmpd 51, (S)-5-((((6-(2-chloro-3-(3-chloro-2-(2-(2-(1-hydroxycyclobutyl)ethyl)-8-methoxy-1,2,3,4-tetrahydroisoquinolin-6-yl)pyridin-4-yl)phenyl)-2-methoxypyridin-3-yl)methyl)amino)methyl)pyrrolidin-2-one] | 74.5 nM |
